Source: patent US12421238B2, “Selective dihydropyrrolopyrimidine JAK2 inhibitors” (CHENGDU JINRUI FOUNDATION BIOTECH CO., LTD., priority 2019, dated 2025)

Key:
HEL92.1.7 = HEL92.1.7 cell proliferation experiment (Cell Titer-Glo); format: cell-based; conditions: Homo sapiens, HEL 92.1.7; HEL92.1.7 cells, 72 hours
TF-1 = TF-1 cell proliferation experiment (CellTiter Glo); format: cell-based; conditions: Homo sapiens; TF-1 cells, 72 hours; read-out: TF-1 (μM), proliferation inhibition
[1] = Pharmacokinetic test in SD rats, intragastric administration; format: in vivo; conditions: rat, po, single intragastric administration, 25 mg/kg, plasma; for Cmax: read-out: Blood concentration Cmax; for AUC(0-t): read-out: Curve area AUClast; for half-life: read-out: Half life t1/2 (converted); for Tmax: read-out: Time to peak Tmax
Experimental: SD rats were used as the test animals.
Standard curve and preparation and processing of quality control samples:
Stock solution was diluted with 50% acetonitrile/water solution to obtain standard working solutions of 0.04, 0.10, 0.20, 0.40, 1.00, 2.00, 4.00 μg/mL, and quality control working solutions of 0.10, 1.00, 3.00 μg/mL. 2.50 μL of standard curve working solutions and quality control working solutions were added to 47.5 μL of blank rat plasma, respectively, to obtain standard curve solutions having analyte concentrations of 2.00, 5.00, 10.00, 20.00, 50.00, 100.00, 200.00 ng/mL and quality control samples having concentrations of 5.00, 50.00, and 150.00 ng/mL. 200 μL of acetonitrile (containing 5 ng/mL of the internal standard loratadine) was added. After vortexing for 3 minutes, the solutions were centrifuged at 15000 rpm at 4° C. for 15 minutes. 100 μL of the supernatant was taken for LC-MS/MS analysis. WinNonlin® 8.0 was used to calculate the experimental results.

[2] = Acute toxicity test, single oral administration to ICR mice (MTD); format: in vivo; conditions: ICR, mouse, in vivo, po, read-out: MTD (maximum tolerated dose)
JAK1 = JAK1 (Homo sapiens, UniProt P23458); experiment: Kinase activity test on JAK1 (Caliper EZ Reader conversion rate)
Sequence of JAK1 (P23458 whole entry): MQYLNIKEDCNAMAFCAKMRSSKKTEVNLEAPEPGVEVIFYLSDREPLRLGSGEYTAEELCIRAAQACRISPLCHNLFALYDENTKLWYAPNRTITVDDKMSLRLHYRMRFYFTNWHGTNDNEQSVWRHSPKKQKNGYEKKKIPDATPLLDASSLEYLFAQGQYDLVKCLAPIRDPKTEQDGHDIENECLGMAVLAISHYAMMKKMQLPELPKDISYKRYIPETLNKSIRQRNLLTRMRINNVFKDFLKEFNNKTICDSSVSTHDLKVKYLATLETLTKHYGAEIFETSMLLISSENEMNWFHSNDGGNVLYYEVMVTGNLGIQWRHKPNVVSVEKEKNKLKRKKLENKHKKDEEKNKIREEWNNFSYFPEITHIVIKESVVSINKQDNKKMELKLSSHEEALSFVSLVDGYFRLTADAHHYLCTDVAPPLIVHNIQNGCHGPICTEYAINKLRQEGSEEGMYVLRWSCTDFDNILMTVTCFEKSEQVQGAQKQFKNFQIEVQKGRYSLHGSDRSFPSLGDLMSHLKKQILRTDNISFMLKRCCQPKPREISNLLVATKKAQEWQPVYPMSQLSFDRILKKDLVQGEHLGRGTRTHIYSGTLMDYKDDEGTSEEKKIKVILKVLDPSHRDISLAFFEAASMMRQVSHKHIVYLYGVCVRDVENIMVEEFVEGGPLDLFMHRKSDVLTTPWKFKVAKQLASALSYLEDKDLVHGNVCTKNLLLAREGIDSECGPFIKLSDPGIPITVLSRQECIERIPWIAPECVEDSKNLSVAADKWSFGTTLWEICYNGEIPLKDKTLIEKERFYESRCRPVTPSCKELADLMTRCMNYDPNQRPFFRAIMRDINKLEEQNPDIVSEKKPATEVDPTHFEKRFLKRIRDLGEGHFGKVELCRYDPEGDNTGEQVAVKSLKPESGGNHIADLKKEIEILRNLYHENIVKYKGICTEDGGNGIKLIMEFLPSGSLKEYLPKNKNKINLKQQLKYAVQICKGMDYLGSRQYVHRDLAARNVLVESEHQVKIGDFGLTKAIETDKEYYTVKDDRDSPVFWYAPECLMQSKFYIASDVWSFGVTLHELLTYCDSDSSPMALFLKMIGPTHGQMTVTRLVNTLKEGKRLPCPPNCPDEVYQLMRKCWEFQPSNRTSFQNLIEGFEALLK

JAK2 = JAK2 (Homo sapiens, UniProt O60674); experiment: Kinase activity test on JAK2 (Caliper EZ Reader conversion rate); conditions: for JAK1/JAK2 / JAK3/JAK2: ratio of IC50 values; for JAK1/JAK2: selectivity for JAK2 over JAK1; for JAK3/JAK2: selectivity for JAK2 over JAK3
Sequence of JAK2 (O60674 whole entry): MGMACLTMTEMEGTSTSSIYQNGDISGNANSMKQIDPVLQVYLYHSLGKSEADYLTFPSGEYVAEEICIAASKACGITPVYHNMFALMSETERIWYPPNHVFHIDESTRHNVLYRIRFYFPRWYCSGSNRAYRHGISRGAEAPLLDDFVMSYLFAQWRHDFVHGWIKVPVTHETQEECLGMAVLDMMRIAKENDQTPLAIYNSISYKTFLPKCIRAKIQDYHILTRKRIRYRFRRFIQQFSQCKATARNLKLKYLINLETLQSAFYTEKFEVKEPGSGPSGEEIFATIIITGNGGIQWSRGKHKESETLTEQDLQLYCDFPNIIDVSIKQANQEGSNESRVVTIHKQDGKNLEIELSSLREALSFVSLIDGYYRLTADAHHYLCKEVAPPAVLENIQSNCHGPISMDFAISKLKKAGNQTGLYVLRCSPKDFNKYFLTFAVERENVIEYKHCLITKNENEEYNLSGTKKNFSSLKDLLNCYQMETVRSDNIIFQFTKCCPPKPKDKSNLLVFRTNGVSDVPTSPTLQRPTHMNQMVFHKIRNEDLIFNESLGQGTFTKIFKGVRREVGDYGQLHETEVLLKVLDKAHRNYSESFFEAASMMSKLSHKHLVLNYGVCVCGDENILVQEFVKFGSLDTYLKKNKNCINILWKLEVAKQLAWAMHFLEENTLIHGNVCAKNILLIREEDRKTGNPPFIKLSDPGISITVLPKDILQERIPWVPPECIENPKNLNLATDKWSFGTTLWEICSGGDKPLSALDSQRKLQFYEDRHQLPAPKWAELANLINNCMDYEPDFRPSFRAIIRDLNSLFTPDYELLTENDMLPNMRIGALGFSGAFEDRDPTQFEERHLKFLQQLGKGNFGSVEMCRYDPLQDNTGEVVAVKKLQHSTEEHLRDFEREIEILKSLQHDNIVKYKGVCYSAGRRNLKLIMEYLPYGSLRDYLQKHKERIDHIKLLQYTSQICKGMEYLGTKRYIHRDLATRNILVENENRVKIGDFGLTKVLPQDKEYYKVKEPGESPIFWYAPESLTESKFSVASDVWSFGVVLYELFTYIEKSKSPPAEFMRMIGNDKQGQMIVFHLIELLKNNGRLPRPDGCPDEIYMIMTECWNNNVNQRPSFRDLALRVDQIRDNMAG

JAK3 = target: T1, JAK3 (Homo sapiens, UniProt P52333); experiment: Kinase activity test on JAK3 (Caliper EZ Reader conversion rate)
T1 sequence (P52333 1-1124): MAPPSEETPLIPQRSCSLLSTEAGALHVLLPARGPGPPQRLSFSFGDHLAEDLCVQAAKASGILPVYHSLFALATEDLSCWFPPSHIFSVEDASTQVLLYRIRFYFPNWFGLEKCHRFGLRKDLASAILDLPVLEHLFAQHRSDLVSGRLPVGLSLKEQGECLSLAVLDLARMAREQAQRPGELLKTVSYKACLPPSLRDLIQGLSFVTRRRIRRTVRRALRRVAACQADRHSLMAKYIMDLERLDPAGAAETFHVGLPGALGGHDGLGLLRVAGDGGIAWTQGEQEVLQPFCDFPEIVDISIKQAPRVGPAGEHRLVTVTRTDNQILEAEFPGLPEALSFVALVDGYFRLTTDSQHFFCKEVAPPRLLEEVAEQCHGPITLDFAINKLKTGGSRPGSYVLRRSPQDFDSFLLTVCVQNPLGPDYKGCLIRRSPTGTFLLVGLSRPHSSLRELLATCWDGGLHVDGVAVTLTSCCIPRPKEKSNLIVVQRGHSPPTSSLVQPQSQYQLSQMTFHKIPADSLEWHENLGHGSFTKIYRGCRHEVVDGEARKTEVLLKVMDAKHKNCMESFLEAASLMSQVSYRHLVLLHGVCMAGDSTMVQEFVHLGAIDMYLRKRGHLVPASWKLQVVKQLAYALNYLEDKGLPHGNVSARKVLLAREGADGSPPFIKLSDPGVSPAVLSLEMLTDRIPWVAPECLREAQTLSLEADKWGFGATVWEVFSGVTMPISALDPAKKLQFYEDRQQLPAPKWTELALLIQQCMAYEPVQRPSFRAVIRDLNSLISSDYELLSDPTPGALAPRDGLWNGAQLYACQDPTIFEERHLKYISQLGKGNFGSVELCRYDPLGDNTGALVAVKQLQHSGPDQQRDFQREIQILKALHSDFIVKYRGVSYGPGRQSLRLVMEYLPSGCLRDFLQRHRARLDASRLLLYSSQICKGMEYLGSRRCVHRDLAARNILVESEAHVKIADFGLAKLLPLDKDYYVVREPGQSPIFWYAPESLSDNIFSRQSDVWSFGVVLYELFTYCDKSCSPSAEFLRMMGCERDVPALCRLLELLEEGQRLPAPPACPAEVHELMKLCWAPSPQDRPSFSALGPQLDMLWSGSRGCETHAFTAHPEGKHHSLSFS

ICR mice = experiment: Acute toxicity test, single oral administration to ICR mice (MTD); format: in vivo

| SMILES | IC50 (JAK1) | IC50 (JAK2) | JAK1/JAK2 (JAK2) | JAK3/JAK2 (JAK2) | IC50 (JAK3) | IC50 (HEL92.1.7) | IC50 (TF-1) | Cmax [1] | AUC(0-t) [1] | half-life [1] | Tmax [1] | MTD at 6 days [2] | MTD (maximum tolerated dose) (ICR mice) |
| --- | --- | --- | --- | --- | --- | --- | --- | --- | --- | --- | --- | --- | --- |
| CC(C)(C)NS(=O)(=O)c1cccc(N2CCc3cnc(Nc4ccc(OCCN5CCCC5)cc4)nc32)c1 [Compound I-1] | 210 nM | 2.5 nM | 84 | 504 | 1260 nM | 0.23 µM | 0.15 µM | 998 ng/mL | 798 ng·h/mL | 5.8 h | 1 h | > 2000 mg/kg |  |
| CC(C)(C)NS(=O)(=O)c1cccc(N2CCc3cnc(Nc4ccc(OCCN5CCNCC5)cc4)nc32)c1 [Compound I-2] | 189 nM | 1.1 nM | 172 | 891 | 980 nM | 0.3 µM | 0.21 µM | 1020 ng/mL | 839 ng·h/mL | 6 h | 1.5 h | ≥ 1000 mg/kg | 1500 mg/kg |
| CC(C)(C)NS(=O)(=O)c1cccc(N2CCc3cnc(Nc4ccc(OCCN5CCOCC5)cc4)nc32)c1 [Compound I-3] | 100 nM | 1 nM | 100 | 877 | 877 nM | 0.19 µM | 0.18 µM | 1230 ng/mL | 903 ng·h/mL | 5.9 h | 1.5 h |  |  |
| CC(C)(C)NS(=O)(=O)c1cccc(N2CCc3cnc(Nc4ccc(OCCN5CCCCC5)cc4)nc32)c1 [Compound I-5] | 99 nM | 1.1 nM | 90 | 1118 | 1230 nM | 0.18 µM | 0.22 µM | 1120 ng/mL | 812 ng·h/mL | 6.1 h | 1.5 h |  |  |
| CC(C)(C)NS(=O)(=O)c1cccc(N2CCc3cnc(Nc4ccc(OCCN5CCS(=O)(=O)CC5)cc4)nc32)c1 [Compound I-6] | 97 nM | 0.75 nM | 129 | 1187 | 890 nM | 0.35 µM | 0.15 µM |  |  |  |  |  |  |
| CCN1CCN(Cc2ccc(Nc3ncc4c(n3)N(c3cccc(S(=O)(=O)NC(C)(C)C)c3)CC4)cc2)CC1 [Compound I-8] | 151 nM | 1.2 nM | 126 | 833 | 1000 nM | 0.33 µM | 0.23 µM |  |  |  |  |  |  |
| CC(C)(C)NS(=O)(=O)c1cccc(N2CCc3cnc(Nc4ccc(CN5CCS(=O)(=O)CC5)cc4)nc32)c1 [Compound I-9] | 191 nM | 1.7 nM | 112 | 782 | 1330 nM | 0.17 µM | 0.21 µM |  |  |  |  |  |  |
| CC(C)(C)NS(=O)(=O)c1cccc(N2CCc3cnc(Nc4ccc(CC5CCOCC5)cc4)nc32)c1 [Compound I-10] | 100 nM | 0.5 nM | 200 | 1974 | 987 nM | 0.2 µM | 0.19 µM |  |  |  |  |  |  |
| CC(C)(C)NS(=O)(=O)c1cccc(N2CCc3cnc(Nc4ccc(CN5CCOCC5)cc4)nc32)c1 [Compound I-11] | 105 nM | 0.8 nM | 131 | 1225 | 980 nM | 0.24 µM | 0.17 µM |  |  |  |  |  |  |
| CC(C)(C)NS(=O)(=O)c1cccc(N2CCc3cnc(Nc4ccc(CN5CCSCC5)cc4)nc32)c1 [Compound I-13] | 89 nM | 1 nM | 89 | 865 | 865 nM | 0.31 µM | 0.27 µM | 979 ng/mL | 955 ng·h/mL | 5.5 h | 2 h | ≥ 1000 mg/kg |  |
| CC(C)(C)NS(=O)(=O)c1cccc(N2CCc3cnc(Nc4ccc(OCCN5CCSCC5)cc4)nc32)c1 [Compound I-14] | 102 nM | 1.1 nM | 93 | 907 | 998 nM | 0.43 µM | 0.28 µM | 1230 ng/mL | 900 ng·h/mL | 6.9 h | 1.5 h |  |  |
| CC(C)(C)NS(=O)(=O)c1cccc(N2CCc3cnc(Nc4ccc(N5CCNCC5)cc4)nc32)c1 [Compound I-16] | 203 nM | 2 nM | 101 | 695 | 1390 nM | 0.21 µM | 0.15 µM |  |  |  |  |  |  |
| Cc1cnc(Nc2ccc(OCCN3CCCC3)cc2)nc1Nc1cccc(S(=O)(=O)NC(C)(C)C)c1 [Fedratinib, reference compound] |  |  |  |  |  | 0.58 µM | 1.57 µM | 579 ng/mL | 559 ng·h/mL | 4 h | 1.5 h | 250 mg/kg |  |

The next lines start with results.

| IC50 (JAK1) | IC50 (JAK2) | JAK1/JAK2 (JAK2) | JAK3/JAK2 (JAK2) | IC50 (JAK3) | SMILES | IC50 (HEL92.1.7) | IC50 (TF-1) | Cmax [1] | AUC(0-t) [1] | half-life [1] | Tmax [1] | MTD at 6 days [2] | MTD (maximum tolerated dose) (ICR mice) |
| --- | --- | --- | --- | --- | --- | --- | --- | --- | --- | --- | --- | --- | --- |
| 103 nM | 0.9 nM | 114 | 1000 | 900 nM | CN1CCC(Cc2ccc(Nc3ncc4c(n3)N(c3cccc(S(=O)(=O)NC(C)(C)C)c3)CC4)cc2)CC1 [Compound I-7] | 0.25 µM | 0.19 µM |  |  |  |  |  |  |
| 98 nM | 0.7 nM | 140 | 1256 | 879 nM | CN1CCN(Cc2ccc(Nc3ncc4c(n3)N(c3cccc(S(=O)(=O)NC(C)(C)C)c3)CC4)cc2)CC1 [Compound I-12] | 0.22 µM | 0.2 µM |  |  |  |  |  |  |
| 221 nM | 2.2 nM | 100 | 709 | 1560 nM | CC(C)(C)NS(=O)(=O)c1cccc(N2CCc3cnc(Nc4ccc(N5CCOCC5)cc4)nc32)c1 [Compound I-17] | 0.25 µM | 0.14 µM |  |  |  |  |  |  |
| 109 nM | 0.7 nM | 156 | 1588 | 1110 nM | CC(C)(C)NS(=O)(=O)c1cccc(N2CCc3cnc(Nc4ccc(N5CCCCC5)cc4)nc32)c1 [Compound I-18] | 0.2 µM | 0.15 µM |  |  |  |  |  |  |
| 101 nM | 0.8 nM | 126 | 1235 | 988 nM | CN1CCC(c2ccc(Nc3ncc4c(n3)N(c3cccc(S(=O)(=O)NC(C)(C)C)c3)CC4)cc2)CC1 [Compound I-21] | 0.22 µM | 0.15 µM |  |  |  |  |  |  |
| 105 nM | 0.6 nM | 175 | 1455 | 873 nM | CC(C)(C)NS(=O)(=O)c1cccc(N2CCc3cnc(Nc4ccc(CN5CCCC5)cc4)nc32)c1 [Compound I-22] | 0.24 µM | 0.22 µM |  |  |  |  |  |  |
